The compounds below were run on ADP-induced human platelet aggregation (assay: ADP-induced platelet aggregation in platelet-rich human plasma (optical aggregometry)). Conditions: inhibition of 3 μM ADP-induced human platelet aggregation, average of 2 experiments.
Type: cell-based
Description: Platelet aggregation was initiated by adding ADP (3 μM) in the presence or absence of various concentrations of test compound to platelet-rich human plasma, and the aggregation response was recorded for six minutes in a Chrono-log® aggregometer running the Aggro/Link software (Chrono-log®, Havertown, Pa.).

Compound	IC50 [µM]
CSc1nc(N)c2ncn(C3OC(COP(=O)(O)OP(=O)(O)OP(=O)(O)OP(=O)(O)OCC4OC(n5cnc6c(N)nc(SC)nc65)C(O)C4O)C(O)C3O)c2n1 (stereo not shown) [Compound 2, tetrasodium P^1,P^4-bis-(2-methylthio-5′-adenosine)tetraphosphate]	0.089 ± 0.038
CNc1ncnc2c1ncn2[C@@H]1O[C@H](COP(O)(=S)OP(=O)(O)C(Cl)P(=O)(O)OP(O)(=S)OC[C@H]2O[C@@H](n3cnc4c(NC)ncnc43)[C@H](O)[C@@H]2O)[C@@H](O)[C@H]1O (stereo partly shown) [Compound 8, P^1,P^4-bis(N^6-methyl-5′-adenosine)-P^1,P^4-dithio-P^2,P^3-monochloromethylenetetraphosphate]	3.52 ± 0.83
CSc1nc(N)c2ncn(C3OC(COP(O)(=S)OP(=O)(O)OP(=O)(O)OP(O)(=S)OCC4OC(n5cnc6c(N)nc(SC)nc65)C(O)C4O)C(O)C3O)c2n1 (stereo not shown) [Compound 10, P^1,P^4-bis-(2-methylthio-5′-adenosine)-P^1,P^4-dithiotetraphosphate]	0.05 ± 0.037
Bis-adenosine tetraphosphate [Ap4A, reference compound]	9.8 ± 2.8

The remaining lines, values ahead:

IC50 [µM]	Compound
5.56 ± 1.7	CCCNc1ncnc2c1ncn2C1OC(COP(O)(=S)OP(=O)(O)C(Cl)P(=O)(O)OP(O)(=S)OCC2OC(n3cnc4c(NCCC)ncnc43)C(O)C2O)C(O)C1O (stereo not shown) [Compound 12, P^1,P^4-bis-(N^6-propyl-5′-adenosine)-P^1,P^4-dithio-P^2,P^3-monochloromethylenetetraphosphate]
0.013 ± 0.01	CSc1nc(N)c2ncn(C3OC(COP(O)(=S)OP(=O)(O)C(Cl)P(=O)(O)OP(O)(=S)OCC4OC(n5cnc6c(N)nc(SC)nc65)C(O)C4O)C(O)C3O)c2n1 (stereo not shown) [Compound 17, P^1,P^4-bis-(2-methylthio-5′-adenosine)-P^1,P^4-dithio-P^2, P^3-monochloromethylenetetraphosphate]
0.26	CNc1nc(SC)nc2c1ncn2C1OC(COP(O)(=S)OP(=O)(O)C(Cl)P(=O)(O)OP(O)(=S)OCC2OC(n3cnc4c(NC)nc(SC)nc43)C(O)C2O)C(O)C1O (stereo not shown) [Compound 22, P^1,P^4-bis(N^6-methyl-2-methylthio-5′-adenosine)-P^1,P^4-dithio-P^2,P^3-monochloromethylenetetraphosphate]
0.015 ± 0.01	CCCSc1nc(N)c2ncn([C@@H]3O[C@H](COP(O)(=S)OP(=O)(O)C(Cl)P(=O)(O)OP(O)(=S)OC[C@H]4O[C@@H](n5cnc6c(N)nc(SCCC)nc65)[C@H](O)[C@@H]4O)[C@@H](O)[C@H]3O)c2n1 (stereo partly shown) [Compound 32, P^1,P^4-bis(2-propylthio-5′-adenosine)-P^1,P^4-dithio-P^2,P^3-monochloromethylenetetraphosphate]
0.021 ± 0.006	Nc1nc(I)nc2c1ncn2[C@@H]1O[C@H](COP(O)(=S)OP(=O)(O)C(Cl)P(=O)(O)OP(O)(=S)OC[C@H]2O[C@@H](n3cnc4c(N)nc(I)nc43)[C@H](O)[C@@H]2O)[C@@H](O)[C@H]1O (stereo partly shown) [Compound 40, P^1,P^1-bis-(2-iodo-5′-adenosine)-P^1,P^4-dithio-P^2, P^3-monochloromethylenetetraphosphate]
0.098 ± 0.004	Nc1nc(Cl)nc2c1ncn2C1OC(COP(O)(=S)OP(=O)(O)C(Cl)P(=O)(O)OP(O)(=S)OCC2OC(n3cnc4c(N)nc(Cl)nc43)C(O)C2O)C(O)C1O (stereo not shown) [Compound 44, P^1,P^4-bis(2-chloro-5′-adenosine)-P^1,P^4-dithio-P^2,P^3-monochloromethylenetetraphosphate]
